# Patent US8088916B2, “Hyaluronic acid-methotrexate conjugate” (priority 2004, dated 2012)
# Tests used:
# [1] = tested on: human synovial cells (HFLS); test: Anti-proliferative effect on synovial cells stimulated by TNF-α ([3H]-deoxyuridine uptake); assay type: cell-based; settings: TNF-α 10 ng/mL, 5 days culture, concentration calculated as MTX from conjugation rate
# Text: An effect of the HA-MTX conjugates of the invention on cell proliferation induced by TNF-α stimulation was examined using human synovial cells (HFLS). The main lesion in rheumatoid arthritis (RA) occurs in the synovial tissue, and, as one of the features, it is known that synovial cells abnormally proliferate to form a granulation tissue (pannus) and thereby destroy the cartilage and bone of the joint. Secondary synovitis is also observed in osteoarthritis (OA). […] Thus, a compound inhibiting the proliferation of synovial cells stimulated by the inflammatory cytokine TNF-α suppresses the progression of the pathologic conditions of RA and OA and becomes a therapeutic drug therefor. The sterile aqueous solutions of the HA-MTX conjugates in Example 2 (Table 2) were used as test substances. HFLS (CA40405, Lot Nos. 1413 and 1493) was purchased from Cell Applications Ins. for use. HFLS was seeded at 5,000 cells/well on a 96-well plate (Falcon) and cultured for 3 hours in Iscove's modified Dulbecco's medium (IMDM) containing 5% FBS and 1× Antibiotic-Antimycotic (GIBOC). After cellular attachment, TNF-α (final concentration: 10 ng/mL) and each HA-MTX conjugate at each concentration was added, followed by cultivation for 5 days. Two days before the end of culture, was added 37 kBq/well of [^3H]-deoxyuridine in the cells (MORAVEK), followed by determining the uptake quantity (radioactivity) of [^3H]-deoxyuridine using a scintillation counter. Cells were recovered by unsticking them with 0.05% trypsin-0.2% EDTA. Radioactivity determined in each of the experiments with each test substance was calculated as a relative value (% of control), using, as control, radioactivity in the group of cells cultured without adding any test substance. […] GraphPad Prism 3.02).
# [2] = tested on: mBSA-induced monoarthritis model; test: Suppressive effect on knee joint swelling in mBSA-induced monoarthritis model; assay type: in vivo, rat; settings: for suppressive effect on joint swelling / alleviating effect on synovitis: Experimental Example 4: conjugate vs equal amount of MTX vs mixture HA+MTX, FIGS. 2 and 3; for AUC (% of control) (mean ± SEM): AUC of knee joint swelling to two weeks after induction, control = HA-treated group, 50 μL into right knee joint 7 and 1 day before and 7 days after induction
# Experimental: An in vivo synovitis-suppressing effect of each HA-MTX conjugate of the invention was assessed on the basis of a suppressive effect on knee joint swelling in a methylated bovine serum albumin (mBSA)-induced monoarthritis model of rat. Since the mBSA-induced arthritis model employed in this experimental example is widely used as an antigen-induced arthritis model, and known to develop synovitis (Sven E. Andersson, et al., The Journal of Rheumatology (1998) 25: 9, 1772-7), the in vivo knee joint swelling-suppressing effect observed in this model conceivably represents a synovitis-suppressing effect. The compounds of the invention suppressing synovitis in vivo are useful as therapeutic drugs for joint diseases accompanied by synovitis (RA, OA, and the like).
# The animal used was the LEW/Crj rat (6-week old male, from Charles River Laboratories Japan, Inc.). Into the flank of the rat was subcutaneously injected 0.5 mL of an emulsion prepared from a 2 mg/mL mBSA (Calbiochem) aqueous solution and an equal amount of Freund's complete adjuvant (Difco) 21 and 14 days before inducing arthritis. The arthritis was induced by administering 50 μL of a 2 mg/mL mBSA aqueous solution into the right knee joint. The left knee joint was untreated, and served as control in each individual. Each test substance (sterile aqueous solution) and the control drug hyaluronic acid were each administered into the right knee joint in an amount of 50 μL 7 and 1 day before and 7 days after inducing arthritis.
# The determination of knee joint swelling involved measuring the widths of both knee joints with calipers to define the left/right difference (right knee diameter-left knee diameter) as a knee joint swelling. The width of each knee joint was measured at a frequency of twice a week from immediately before inducing arthritis to two weeks later to calculate AUC (an abbreviation for Area Under the Curve; here, it means an area under a curve with time for the joint swelling) from the transition thereof with time. At each measurement, the mean and standard deviation of AUC were calculated to perform an unpaired t-test between each test substance-treated group and the HA-treated group, and significant difference was judged to be present if the probability level is less than 5%. Statistical analysis used SAS version 6.12 (SAS Institute Japan). In addition, the AUC of each test substance was calculated, using that in the HA-treated group as a control, as a relative value (% of control) therefor.
# To verify the usefulness of the HA-MTX conjugate of the invention, the suppressive effect on joint swelling was compared, in accordance with the method of Example 3, among: 1) a group treated with the HA-MTX conjugate (sterile aqueous solution) prepared in Example 2-2; 2) a group treated with a solution containing MTX of an amount equal to that of MTX contained in the HA-MTX conjugate; and 3) a group of treated with a mixture (HA+MTX) of MTX and hyaluronic acid (HA) of amounts equal to those contained in the conjugate. The transition of knee joint swelling with time in this test is shown in FIG. 2, and the AUC thereof in FIG. 3.
# [3] = Measurement of viscoelasticity; assay type: physicochemical; settings: sterile solutions, 37° C., cone 4 cm, CSL500 stress-controlled rheometer; FIG. 1
# Experimental: The viscoelasticities of the sterile solutions of hyaluronic acids (molecular weights: 1,900,000 and 800,000) and the conjugates of Examples 2-1, 2-8, 2-18, 2-27, and 2-29 were measured at 37° C. using a cone 4 cm in diameter by a CSL500 stress-controlled rheometer (from Carri-Med Ltd.).
# [4] = tested on: collagenase-induced arthritis (OA) model; test: Suppressive effect on knee joint swelling in collagenase-induced arthritis (OA) model; assay type: in vivo, rat; settings: AUC of knee joint swelling to 20 days after induction; 50 μL into right knee joint once a week from 7 and 1 day before induction; compared with HA-treated group
# Experimental: An in vivo synovitis-suppressing effect of the HA-MTX conjugate was evaluated in collagenase-induced OA model rats. The collagenase-induced OA model is a model in which inflammation has been induced within the knee joint by injecting collagenase into the knee joint to directly digest collagen in cartilage tissue. […] Therefore, the compound of the invention suppressing inflammation in the model and inhibiting cartilage degeneration therein will be useful as a therapeutic drug for OA.
# The animal used was the SD/Crj rat (6-week old male, from Charles River Laboratories Japan, Inc.). Into the articular cavity of the right knee was administered 50 μL of 1.5% collagenase (Sigma) solution to induce arthritis. The left knee joint was untreated to use as a control in each individual. Each test substance was administered into the right knee joint in an amount of 50 μL once a week from 7 and 1 day before inducing arthritis.
# The determination of knee joint swelling involved measuring the widths of both knee joints with calipers to determine the left/right difference (right knee diameter-left knee diameter), which was defined as a knee joint swelling. The width of each knee joint was measured on the order of twice a week from immediately before inducing arthritis to 20 days later to calculate AUC from a graph showing the transition thereof with time. At each measurement, the mean and standard error of the mean of AUC were calculated to perform an unpaired t-test between each test substance-treated group and the HA-treated group, and significant difference was judged to be present if the probability level is less than 5%.
Compound,IC50 [1],AUC (% of control) (mean ± SEM) [2],further results
"CN(Cc1cnc2nc(N)nc(N)c2n1)c1ccc(C(=O)N[C@@H](CCC(=O)O)C(=O)O)cc1 [MTX alone, methotrexate]",0.055 µM,,suppressive effect on joint swelling / alleviating effect on synovitis [2]: neither MTX alone nor the mixture of HA and MTX had a sufficient alleviating effect on synovitis
MTX-α-AsnPhePhe-NHC10H20O3NH-HA [Example 2-47],1.1 µM,42.1 ± 6.3 % of control,
MTX-α-Glu-NHC2H4NH-HA [Example 2-30],54 µM,58.3 ± 7.4 % of control,
MTX-α-Glu-NHC10H20O3NH-HA [Example 2-29],8.4 µM,68.8 ± 6.7 % of control,"viscoelasticity [3]: viscoelasticities intermediate between those of the hyaluronic acids having molecular weights of 800,000 and 1,900,000"
MTX-α-His-NHC10H20O3NH-HA [Example 2-36],17 µM,,
MTX-α-Ile-NHC2H4NH-HA [Example 2-28],12 µM,63.5 ± 4.7 % of control,
MTX-α-Leu-NHC10H20O3NH-HA [Example 2-34],3.6 µM,,
MTX-α-Phe-NHC10H20O3NH-HA [Example 2-26],1.7 µM,,
MTX-α-PheGly-NHC4H8ONH-HA [Example 2-22],3 µM,,
MTX-α-PheGly-NHC6H12O2NH-HA [Example 2-21],0.83 µM,47.4 ± 8.8 % of control,
MTX-α-PheGly-NHC8H16O2NH-HA [Example 2-20],18 µM,65.3 ± 9.6 % of control,
MTX-α-PheGly-NHC10H20O2NH-HA [Example 2-19],5.4 µM,,
MTX-α-PheGly-NHC10H20O3NH-HA [Example 2-15],0.48 µM,,
MTX-α-PheGly-NHC10H20O3NH-HA [Example 2-16],13 µM,,
MTX-α-PheGly-NHC10H20O3NH-HA [Example 2-17],13 µM,56.1 ± 8.2 % of control,
MTX-α-PhePhe-Lys-HA [Example 2-14],15 µM,54.3 ± 7.4 % of control,
MTX-α-PhePhe-NHC2H4NH-HA [Example 2-2],0.14 µM,45.0 ± 6.8 % of control,AUC (% of control) (mean ± SEM) [4]: 48.9 ± 3.7 % of control; suppressive effect on joint swelling / alleviating effect on synovitis [2]: markedly strong suppressive effect on the joint swelling in the arthritis model compared to that of MTX alone or the mixture of MTX and HA
MTX-α-PhePhe-NHC2H4NH-HA [Example 2-2′],0.72 µM,65.5 ± 7.5 % of control,
MTX-α-PhePhe-NHC2H4NH-HA [Example 2-3],,76.2 ± 7.7 % of control,
MTX-α-PhePhe-NHC2H4NH-HA [Example 2-4],11 µM,69.0 ± 6.5 % of control,
MTX-α-PhePhe-NHC2H4NH-HA [Example 2-5],1.1 µM,51.7 ± 3.8 % of control,

Compound,IC50 [1],AUC (% of control) (mean ± SEM) [2],further results
MTX-α-PhePhe-NHC2H4NH-HA [Example 2-6],0.091 µM,41.6 ± 7.6 % of control,
MTX-α-PhePhe-NHC2H4NH-HA [Example 2-7],,46.5 ± 4.8 % of control,
MTX-α-PhePhe-NHC4H80NH-HA [Example 2-12],0.3 µM,,
MTX-α-PhePhe-NHC5H10NH-HA [Example 2-13],1.5 µM,60.5 ± 9.9 % of control,
MTX-α-PhePhe-NHC6H12O2NH-HA [Example 2-11],0.25 µM,,
MTX-α-PhePhe-NHC8H16O2NH-HA [Example 2-10],1.2 µM,63.7 ± 9.1 % of control,
MTX-α-PhePhe-NHC10H20O2NH-HA [Example 2-9],1.3 µM,,
MTX-α-PhePhe-NHC10H20O3NH-HA [Example 2-49],13 µM,,
MTX-α-PhePro-NHC10H20O3NH-HA [Example 2-23],12 µM,,
MTX-α-PheβAla-NHC2H4NH-HA [Example 2-25],0.29 µM,,
MTX-α-PheβAla-NHC10H20O3NH-HA [Example 2-24],3.5 µM,,
MTX-α-Ser-NHC10H20O3NH-HA [Example 2-33],36 µM,,
MTX-α-Trp-NHC10H20O3NH-HA [Example 2-32],4.7 µM,,
MTX-α-Tyr-NHC10H20O3NH-HA [Example 2-31],7 µM,67.7 ± 6.2 % of control,
MTX-α-Val-NHC10H20O3NH-HA [Example 2-35],11 µM,,
MTX-α-βAla-NHC10H20O3NH-HA [Example 2-38],,69.3 ± 4.2 % of control,
MTX-α/γ-GlyPheLeuGly-NHC10H20O3NH-HA (methotrexate-GFLG-{NHC10H20O3NH-hyaluronic acid}; also: methotrexate linked via α- or γ-carboxyl) [Example 2-48],1.3 µM,58.8 ± 11.6 % of control,
MTX-γ-PheGly-NHC10H20O3NH-HA [Example 2-42],14 µM,,
MTX-γ-PhePhe-NHC4H8ONH-HA [Example 2-41],,67.1 ± 8.3 % of control,
MTX-γ-PhePhe-NHC10H20O3NH-HA [Example 2-39],3.2 µM,,
